System: NCI-H23 complex spheroids with HUVEC/MSC, viability
Assay: Anticancer human tumor NCI-H23 cell line growth inhibition [RAS];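 note: spheroids exposed to compound for 7 days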;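 for viability, T/C: 100% = DMSO vehicle control viability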
Settings: for IC50: curve of first compound; for viability, T/C: stronger effect = lower value
Outline: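 Tumour cells grown as complex spheroids with HUVEC endothelial cells and mesenchymal stem cells, treated with RAS pathway inhibitor combinations. Each agent spans half-log steps from near clinical Cmax, or 10 microM where Cmax is unknown.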

CC1(C)CCC(Nc2ncc(C(F)(F)F)c(-c3c[nH]c4c(P(C)(C)=O)c(C#N)ccc34)n2)CN1 (stereo unspecified) + C#Cc1c(F)ccc2cc(O)cc(-c3ncc4c(N5CC6CCC(C5)N6)nc(OCC56CCCN5CC(F)C6)nc4c3F)c12
IC50 (second compound 0.0316 µM): 25.3 nM
IC50 (second compound 0.1 µM): > 300 nM
IC50 (second compound 0.316 µM): 13.3 nM
IC50 (second compound 1 µM): 5.95 nM
IC50 (second compound 3.16 µM): < 0.949 nM
IC50 (second compound 10 µM): < 0.949 nM
viability, T/C (second compound 0.0316 µM, first compound 0.000949 µM): 77.4%
viability, T/C (second compound 0.0316 µM, first compound 0.003 µM): 95.5%
viability, T/C (second compound 0.0316 µM, first compound 0.00949 µM): 64.1%
viability, T/C (second compound 0.0316 µM, first compound 0.03 µM): 46.9%
viability, T/C (second compound 0.0316 µM, first compound 0.0949 µM): 42.9%
viability, T/C (second compound 0.0316 µM, first compound 0.3 µM): 53%
viability, T/C (second compound 0.1 µM, first compound 0.000949 µM): 105%
viability, T/C (second compound 0.1 µM, first compound 0.003 µM): 87.7%
viability, T/C (second compound 0.1 µM, first compound 0.00949 µM): 60.6%
viability, T/C (second compound 0.1 µM, first compound 0.03 µM): 46.7%
viability, T/C (second compound 0.1 µM, first compound 0.0949 µM): 44.5%
viability, T/C (second compound 0.1 µM, first compound 0.3 µM): 59.2%
viability, T/C (second compound 0.316 µM, first compound 0.000949 µM): 82.9%
viability, T/C (second compound 0.316 µM, first compound 0.003 µM): 75.6%
viability, T/C (second compound 0.316 µM, first compound 0.00949 µM): 52.2%
viability, T/C (second compound 0.316 µM, first compound 0.03 µM): 44.8%
viability, T/C (second compound 0.316 µM, first compound 0.0949 µM): 35.6%
viability, T/C (second compound 0.316 µM, first compound 0.3 µM): 40.8%
viability, T/C (second compound 1 µM, first compound 0.000949 µM): 83.2%
viability, T/C (second compound 1 µM, first compound 0.003 µM): 60.8%
viability, T/C (second compound 1 µM, first compound 0.00949 µM): 42.7%
viability, T/C (second compound 1 µM, first compound 0.03 µM): 38.2%
viability, T/C (second compound 1 µM, first compound 0.0949 µM): 39%
viability, T/C (second compound 1 µM, first compound 0.3 µM): 36.8%
viability, T/C (second compound 3.16 µM, first compound 0.000949 µM): 45%
viability, T/C (second compound 3.16 µM, first compound 0.003 µM): 37.9%
viability, T/C (second compound 3.16 µM, first compound 0.00949 µM): 33%
viability, T/C (second compound 3.16 µM, first compound 0.03 µM): 28.4%
viability, T/C (second compound 3.16 µM, first compound 0.0949 µM): 33%
viability, T/C (second compound 3.16 µM, first compound 0.3 µM): 31.4%
viability, T/C (second compound 10 µM, first compound 0.000949 µM): 29.7%
viability, T/C (second compound 10 µM, first compound 0.003 µM): 29.1%
viability, T/C (second compound 10 µM, first compound 0.00949 µM): 25.1%
viability, T/C (second compound 10 µM, first compound 0.03 µM): 21.7%
viability, T/C (second compound 10 µM, first compound 0.0949 µM): 19.3%
viability, T/C (second compound 10 µM, first compound 0.3 µM): 18.4%

Cc1nc(N2CCC3(CC2)COC(C)C3N)c(CO)nc1Sc1ccnc(N)c1Cl (stereo unspecified) + C#Cc1c(F)ccc2cc(O)cc(-c3ncc4c(N5CC6CCC(C5)N6)nc(OCC56CCCN5CC(F)C6)nc4c3F)c12
IC50 (second compound 0.0316 µM): > 10000 nM
IC50 (second compound 0.1 µM): 769 nM
IC50 (second compound 0.316 µM): 391 nM
IC50 (second compound 1 µM): 216 nM
IC50 (second compound 3.16 µM): 66.2 nM
IC50 (second compound 10 µM): < 31.6 nM
viability, T/C (second compound 0.0316 µM, first compound 0.0316 µM): 101%
viability, T/C (second compound 0.0316 µM, first compound 0.1 µM): 110%
viability, T/C (second compound 0.0316 µM, first compound 0.316 µM): 68.5%
viability, T/C (second compound 0.0316 µM, first compound 1 µM): 62.7%
viability, T/C (second compound 0.0316 µM, first compound 3.16 µM): 42.8%
viability, T/C (second compound 0.0316 µM, first compound 10 µM): 48.3%
viability, T/C (second compound 0.1 µM, first compound 0.0316 µM): 115%
viability, T/C (second compound 0.1 µM, first compound 0.1 µM): 110%
viability, T/C (second compound 0.1 µM, first compound 0.316 µM): 64.8%
viability, T/C (second compound 0.1 µM, first compound 1 µM): 48.6%
viability, T/C (second compound 0.1 µM, first compound 3.16 µM): 44.2%
viability, T/C (second compound 0.1 µM, first compound 10 µM): 41.5%
viability, T/C (second compound 0.316 µM, first compound 0.0316 µM): 106%
viability, T/C (second compound 0.316 µM, first compound 0.1 µM): 95.2%
viability, T/C (second compound 0.316 µM, first compound 0.316 µM): 51.4%
viability, T/C (second compound 0.316 µM, first compound 1 µM): 45.5%
viability, T/C (second compound 0.316 µM, first compound 3.16 µM): 36%
viability, T/C (second compound 0.316 µM, first compound 10 µM): 39.5%
viability, T/C (second compound 1 µM, first compound 0.0316 µM): 78.7%
viability, T/C (second compound 1 µM, first compound 0.1 µM): 60.7%
viability, T/C (second compound 1 µM, first compound 0.316 µM): 45.2%
viability, T/C (second compound 1 µM, first compound 1 µM): 35.3%
viability, T/C (second compound 1 µM, first compound 3.16 µM): 35.2%
viability, T/C (second compound 1 µM, first compound 10 µM): 32.6%
viability, T/C (second compound 3.16 µM, first compound 0.0316 µM): 57.8%
viability, T/C (second compound 3.16 µM, first compound 0.1 µM): 45.7%
viability, T/C (second compound 3.16 µM, first compound 0.316 µM): 35.8%
viability, T/C (second compound 3.16 µM, first compound 1 µM): 29.6%
viability, T/C (second compound 3.16 µM, first compound 3.16 µM): 30.9%
viability, T/C (second compound 3.16 µM, first compound 10 µM): 26.9%
viability, T/C (second compound 10 µM, first compound 0.0316 µM): 38.1%
viability, T/C (second compound 10 µM, first compound 0.1 µM): 35.2%
viability, T/C (second compound 10 µM, first compound 0.316 µM): 31.7%
viability, T/C (second compound 10 µM, first compound 1 µM): 26.1%
viability, T/C (second compound 10 µM, first compound 3.16 µM): 26.8%
viability, T/C (second compound 10 µM, first compound 10 µM): 18.2%

Cc1nc(N2CCC3(CC2)COC(C)C3N)c(CO)nc1Sc1ccnc(N)c1Cl (stereo unspecified) + CCn1c(-c2cccnc2C(C)OC)c2c3cc(ccc31)N1CCOC(CC(NC(=O)C(C(C)C)N(C)C(=O)C3(F)CCN(C(=O)C#CC(C)(C)N(C)C)CC3)C(=O)N3CCCC(N3)C(=O)OCC(C)(C)C2)C1
IC50 (second compound 0.000949 µM): < 31.6 nM
IC50 (second compound 0.003 µM): < 31.6 nM
IC50 (second compound 0.00949 µM): < 31.6 nM
IC50 (second compound 0.03 µM): < 31.6 nM
IC50 (second compound 0.0949 µM): < 31.6 nM
IC50 (second compound 0.3 µM): < 31.6 nM
viability, T/C (second compound 0.000949 µM, first compound 0.0316 µM): 27.2%
viability, T/C (second compound 0.000949 µM, first compound 0.1 µM): 21%
viability, T/C (second compound 0.000949 µM, first compound 0.316 µM): 13.6%
viability, T/C (second compound 0.000949 µM, first compound 1 µM): 15.3%
viability, T/C (second compound 0.000949 µM, first compound 3.16 µM): 12.3%
viability, T/C (second compound 0.000949 µM, first compound 10 µM): 9.03%
viability, T/C (second compound 0.003 µM, first compound 0.0316 µM): 25.1%
viability, T/C (second compound 0.003 µM, first compound 0.1 µM): 20.2%
viability, T/C (second compound 0.003 µM, first compound 0.316 µM): 16.4%
viability, T/C (second compound 0.003 µM, first compound 1 µM): 16.7%
viability, T/C (second compound 0.003 µM, first compound 3.16 µM): 12.2%
viability, T/C (second compound 0.003 µM, first compound 10 µM): 8.35%
viability, T/C (second compound 0.00949 µM, first compound 0.0316 µM): 24%
viability, T/C (second compound 0.00949 µM, first compound 0.1 µM): 21.4%
viability, T/C (second compound 0.00949 µM, first compound 0.316 µM): 18%
viability, T/C (second compound 0.00949 µM, first compound 1 µM): 14.4%
viability, T/C (second compound 0.00949 µM, first compound 3.16 µM): 11.5%
viability, T/C (second compound 0.00949 µM, first compound 10 µM): 8.24%
viability, T/C (second compound 0.03 µM, first compound 0.0316 µM): 22.4%
viability, T/C (second compound 0.03 µM, first compound 0.1 µM): 19.1%
viability, T/C (second compound 0.03 µM, first compound 0.316 µM): 17.7%
viability, T/C (second compound 0.03 µM, first compound 1 µM): 11.7%
viability, T/C (second compound 0.03 µM, first compound 3.16 µM): 9.09%
viability, T/C (second compound 0.03 µM, first compound 10 µM): 9.82%
viability, T/C (second compound 0.0949 µM, first compound 0.0316 µM): 20.3%
viability, T/C (second compound 0.0949 µM, first compound 0.1 µM): 20.6%
viability, T/C (second compound 0.0949 µM, first compound 0.316 µM): 15.1%
viability, T/C (second compound 0.0949 µM, first compound 1 µM): 13.4%
viability, T/C (second compound 0.0949 µM, first compound 3.16 µM): 8.28%
viability, T/C (second compound 0.0949 µM, first compound 10 µM): 9.12%
viability, T/C (second compound 0.3 µM, first compound 0.0316 µM): 20%
viability, T/C (second compound 0.3 µM, first compound 0.1 µM): 17.1%
viability, T/C (second compound 0.3 µM, first compound 0.316 µM): 18.1%
viability, T/C (second compound 0.3 µM, first compound 1 µM): 11.3%
viability, T/C (second compound 0.3 µM, first compound 3.16 µM): 7.7%
viability, T/C (second compound 0.3 µM, first compound 10 µM): 9.33%
